Patent US20250090640A1, “METHOD OF IMPROVING THE VIABILITY OF A DENTAL IMPLANT” (priority 2023, published 2025)

Legend:
[1] = test system: patients with severe, chronic periodontal disease; conditions: 6-week course of daily injections (20 mcg) from 3 days prior to surgery, with oral calcium and vitamin D; cited from earlier work
OVX rats = test system: OVX rats; parameters: species or system Sprague-Dawley rats; conditions: rat, in vivo
Description: In this study, Sprague-Dawley rats were divided into three groups (Table 1) to study the impact of abaloparatide treatment on implant viability in rats in a model that mimics osteoporosis by ovariectomy (OVX).
At four months, rats in the OVX groups were ovariectomized, and bone depletion was allowed to occur for two months. At this point, daily injections of abaloparatide (Abalo) or vehicle (VEH) began 42 days prior to implant surgery and were continued out to 21 days past implant surgery.
As shown in FIGS. 2A-2C, 3A-3F, and 4A-4C, altered bone metabolism in the OVX rats and residual ridge defects complicated implant placement. […] However, abaloparatide did increase bone mass density in the femoral shaft and intact maxillac on the non-extraction side of the jaw (FIGS. 4A and 4B, respectively). With continued reference to FIGS. 4A and 4B, there was a 150% increase in mean BMD in OVX rats treated with ABL versus VEH.

SMILES	clinical outcomes relative to placebo during the year following periodontal surgery [1]	relationship of unexpected healing complications after tooth extraction to treatment (OVX rats)
CC[C@H](C)[C@H](NC(=O)[C@H](CCC(=O)O)NC(=O)[C@H](CO)NC(=O)[C@@H](NC(=O)[C@@H](N)CO)C(C)C)C(=O)N[C@@H](CCC(N)=O)C(=O)N[C@@H](CC(C)C)C(=O)N[C@@H](CCSC)C(=O)N[C@@H](Cc1cnc[nH]1)C(=O)N[C@@H](CC(N)=O)C(=O)N[C@@H](CC(C)C)C(=O)NCC(=O)N[C@@H](CCCCN)C(=O)N[C@@H](Cc1cnc[nH]1)C(=O)N[C@@H](CC(C)C)C(=O)N[C@@H](CC(N)=O)C(=O)N[C@@H](CO)C(=O)N[C@@H](CCSC)C(=O)N[C@@H](CCC(=O)O)C(=O)N[C@@H](CCCN=C(N)N)C(=O)N[C@H](C(=O)N[C@@H](CCC(=O)O)C(=O)N[C@@H](Cc1c[nH]c2ccccc12)C(=O)N[C@@H](CC(C)C)C(=O)N[C@@H](CCCN=C(N)N)C(=O)N[C@@H](CCCCN)C(=O)N[C@@H](CCCCN)C(=O)N[C@@H](CC(C)C)C(=O)N[C@@H](CCC(N)=O)C(=O)N[C@@H](CC(=O)O)C(=O)N[C@H](C(=O)N[C@@H](Cc1cnc[nH]1)C(=O)N[C@@H](CC(N)=O)C(=O)N[C@@H](Cc1ccccc1)C(=O)O)C(C)C)C(C)C [Teriparatide]	improved clinical outcomes	–
CC[C@H](C)[C@H](NC(=O)[C@H](CO)NC(=O)[C@H](CCCCN)NC(=O)CNC(=O)[C@H](CCCCN)NC(=O)[C@H](CC(=O)O)NC(=O)[C@H](Cc1cnc[nH]1)NC(=O)[C@H](CC(C)C)NC(=O)[C@H](CC(C)C)NC(=O)[C@H](CCC(N)=O)NC(=O)[C@H](Cc1cnc[nH]1)NC(=O)[C@H](CCC(=O)O)NC(=O)[C@H](CO)NC(=O)[C@@H](NC(=O)[C@H](C)N)C(C)C)C(=O)N[C@@H](CCC(N)=O)C(=O)N[C@@H](CC(=O)O)C(=O)N[C@@H](CC(C)C)C(=O)N[C@@H](CCCNC(=N)N)C(=O)N[C@@H](CCCNC(=N)N)C(=O)N[C@@H](CCCNC(=N)N)C(=O)N[C@@H](CCC(=O)O)C(=O)N[C@@H](CC(C)C)C(=O)N[C@@H](CC(C)C)C(=O)N[C@@H](CCC(=O)O)C(=O)N[C@@H](CCCCN)C(=O)N[C@@H](CC(C)C)C(=O)N[C@@H](CC(C)C)C(=O)NC(C)(C)C(=O)N[C@@H](CCCCN)C(=O)N[C@@H](CC(C)C)C(=O)N[C@@H](Cc1cnc[nH]1)C(=O)N[C@H](C(=O)N[C@@H](C)C(N)=O)[C@@H](C)O [abaloparatide, [Glu^22,25, Leu^23,28,31, Aib^29, Lys^26,30]hPTHrP(1-34)NH2]	–	no relationship
